Data reported in patent US8686050B2, “Diglycidic ether derivative therapeutics and methods for their use” (British Columbia Cancer Agency Branch, priority 2008, dated 2014).
“Also recorded” adds a separate entry of the source. Counter-ions that a name gives are not always drawn.

Tests used:
[1] = tested on: LNCaP cells; assay: Androgen-dependent proliferation of LNCaP cells (BrdU incorporation); type: cell-based, human; conditions: R1881 0.1 nM, 4 days; 185-9-2 5 μg/ml, bicalutamide 10 μM
Experimental: The prostate gland is an androgen-dependent organ where androgens are the predominant mitogenic stimulus (Isaacs J T, Scott W W, Coffey D S., Prog Clin Biol Res. 1979; 33:133-44). This dependency on androgens provides the underlying rationale for treating prostate cancer with chemical or surgical castration. […] BrdU incorporation was measured 4 days later to indicate changes in proliferation in response to androgen (FIG. 12). […] Cancer Inst. Monogr. 49, 17-21).

[2] = target: T1, AR (Homo sapiens, UniProt P10275, T878A); assay: AR protein in harvested LNCaP xenografts (IHC, western blot); type: in vivo, mice; design: LNCaP human prostate cancer cells express endogenous androgen receptor (AR); from tissue; host or cells: LNCaP xenografts harvested from castrated NOD-SCID mice; conditions: I.V. or I.T delivery
T1 sequence (P10275 1-920 T878A): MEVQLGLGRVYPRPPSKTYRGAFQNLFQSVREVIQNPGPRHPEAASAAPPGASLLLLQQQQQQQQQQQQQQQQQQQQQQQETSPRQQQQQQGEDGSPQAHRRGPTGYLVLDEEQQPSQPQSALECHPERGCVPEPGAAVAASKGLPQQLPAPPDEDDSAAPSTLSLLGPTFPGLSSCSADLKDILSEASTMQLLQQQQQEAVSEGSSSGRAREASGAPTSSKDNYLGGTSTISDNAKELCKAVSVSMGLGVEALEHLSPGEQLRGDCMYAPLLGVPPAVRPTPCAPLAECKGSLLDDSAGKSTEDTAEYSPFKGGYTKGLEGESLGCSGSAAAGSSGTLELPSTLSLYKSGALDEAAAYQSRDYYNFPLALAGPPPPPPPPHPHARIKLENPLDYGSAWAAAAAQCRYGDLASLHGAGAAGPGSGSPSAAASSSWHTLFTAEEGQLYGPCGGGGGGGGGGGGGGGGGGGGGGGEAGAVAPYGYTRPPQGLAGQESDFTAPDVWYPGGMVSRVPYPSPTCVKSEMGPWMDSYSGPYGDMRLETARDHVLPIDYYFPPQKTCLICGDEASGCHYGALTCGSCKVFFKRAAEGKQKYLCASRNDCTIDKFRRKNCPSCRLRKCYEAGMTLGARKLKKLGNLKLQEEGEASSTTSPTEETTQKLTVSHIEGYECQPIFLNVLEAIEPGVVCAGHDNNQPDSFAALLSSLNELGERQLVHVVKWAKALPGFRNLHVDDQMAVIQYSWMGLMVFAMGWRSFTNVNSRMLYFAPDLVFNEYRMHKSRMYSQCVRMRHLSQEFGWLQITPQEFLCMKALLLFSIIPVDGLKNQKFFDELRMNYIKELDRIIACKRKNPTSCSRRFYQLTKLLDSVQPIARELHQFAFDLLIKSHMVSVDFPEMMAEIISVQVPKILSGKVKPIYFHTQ
Experimental: Levels of cytokeratin 18 were measured as an indication of amount of epithelial cells in the xenograft samples.

[3] = target: T1, AR; assay: Nuclear translocation of AR in LNCaP cells (fractionation, fluorescence microscopy); type: cell-based; design: LNCaP cells express endogenous AR and secrete prostate-specific antigen (PSA); endogenous in cells; host or cells: LNCaP
[4] = tested on: PSA mRNA; assay: Endogenous PSA mRNA in LNCaP cells by QRT-PCR; type: cell-based, human; conditions: 185-9-2 5 μg/ml, R1881 1 nM 16 hours, normalized to GAPDH mRNA
Experimental: Induction of PSA mRNA by both R1881 (ligand-dependent) and FSK (ligand-independent) in LNCaP cells is dependent upon AR (Sadar, M. D., J. Biol. Chem. 274, 7777-7783 (1999); Wang G, Jones S J, Marra M A, Sadar M D, Oncogene 2006; 25:7311-23.). To test whether the compounds have an effect on endogenous gene expression, the levels of PSA mRNA in LNCaP cells exposed to R1881 were measured. LNCaP cells (in serum-free and phenol-red free media) were incubated with compounds for 1 hour before the addition of R1881 (1 nM) for an additional 16 hours before harvesting and isolating total RNA. Levels of mRNA were measured using QPCR. Levels of PSA mRNA were normalized to levels of GAPDH mRNA.

CC(C)(c1ccc(OCC(O)CO)cc1)c1ccc(OCC(O)CCl)cc1 (centres unmarked) [185-9-2, BADGE.HCL.H2O]
androgen-dependent proliferation of LNCaP cells (BrdU incorporation) [1]: blocked androgen-dependent proliferation; also recorded: as effective as bicalutamide | levels of AR protein in xenografts [2]: does not reduce levels of AR protein; also recorded: did not decrease levels of AR protein | nuclear translocation of the AR in the absence of androgen ([3]; compound on its own): did not cause nuclear translocation of the AR | nuclear translocation of AR protein in response to androgen ([3]; pretreated 1 hr, 10 nM DHT): nor did it prevent nuclear translocation of AR protein | endogenous PSA mRNA induction by R1881 [4]: to almost baseline levels; also recorded: inhibited endogenous PSA gene expression
